Our source for the IC50 values is US6420383B1, “Thiepino[3,2-b]dihydropyridines and related compositions and methods” (Ortho-McNeil Pharmaceutical, Inc., priority 2000, dated 2002).

Each structure is given as a SMILES string.

T1 sequence (P15381 whole entry, other chains not shown): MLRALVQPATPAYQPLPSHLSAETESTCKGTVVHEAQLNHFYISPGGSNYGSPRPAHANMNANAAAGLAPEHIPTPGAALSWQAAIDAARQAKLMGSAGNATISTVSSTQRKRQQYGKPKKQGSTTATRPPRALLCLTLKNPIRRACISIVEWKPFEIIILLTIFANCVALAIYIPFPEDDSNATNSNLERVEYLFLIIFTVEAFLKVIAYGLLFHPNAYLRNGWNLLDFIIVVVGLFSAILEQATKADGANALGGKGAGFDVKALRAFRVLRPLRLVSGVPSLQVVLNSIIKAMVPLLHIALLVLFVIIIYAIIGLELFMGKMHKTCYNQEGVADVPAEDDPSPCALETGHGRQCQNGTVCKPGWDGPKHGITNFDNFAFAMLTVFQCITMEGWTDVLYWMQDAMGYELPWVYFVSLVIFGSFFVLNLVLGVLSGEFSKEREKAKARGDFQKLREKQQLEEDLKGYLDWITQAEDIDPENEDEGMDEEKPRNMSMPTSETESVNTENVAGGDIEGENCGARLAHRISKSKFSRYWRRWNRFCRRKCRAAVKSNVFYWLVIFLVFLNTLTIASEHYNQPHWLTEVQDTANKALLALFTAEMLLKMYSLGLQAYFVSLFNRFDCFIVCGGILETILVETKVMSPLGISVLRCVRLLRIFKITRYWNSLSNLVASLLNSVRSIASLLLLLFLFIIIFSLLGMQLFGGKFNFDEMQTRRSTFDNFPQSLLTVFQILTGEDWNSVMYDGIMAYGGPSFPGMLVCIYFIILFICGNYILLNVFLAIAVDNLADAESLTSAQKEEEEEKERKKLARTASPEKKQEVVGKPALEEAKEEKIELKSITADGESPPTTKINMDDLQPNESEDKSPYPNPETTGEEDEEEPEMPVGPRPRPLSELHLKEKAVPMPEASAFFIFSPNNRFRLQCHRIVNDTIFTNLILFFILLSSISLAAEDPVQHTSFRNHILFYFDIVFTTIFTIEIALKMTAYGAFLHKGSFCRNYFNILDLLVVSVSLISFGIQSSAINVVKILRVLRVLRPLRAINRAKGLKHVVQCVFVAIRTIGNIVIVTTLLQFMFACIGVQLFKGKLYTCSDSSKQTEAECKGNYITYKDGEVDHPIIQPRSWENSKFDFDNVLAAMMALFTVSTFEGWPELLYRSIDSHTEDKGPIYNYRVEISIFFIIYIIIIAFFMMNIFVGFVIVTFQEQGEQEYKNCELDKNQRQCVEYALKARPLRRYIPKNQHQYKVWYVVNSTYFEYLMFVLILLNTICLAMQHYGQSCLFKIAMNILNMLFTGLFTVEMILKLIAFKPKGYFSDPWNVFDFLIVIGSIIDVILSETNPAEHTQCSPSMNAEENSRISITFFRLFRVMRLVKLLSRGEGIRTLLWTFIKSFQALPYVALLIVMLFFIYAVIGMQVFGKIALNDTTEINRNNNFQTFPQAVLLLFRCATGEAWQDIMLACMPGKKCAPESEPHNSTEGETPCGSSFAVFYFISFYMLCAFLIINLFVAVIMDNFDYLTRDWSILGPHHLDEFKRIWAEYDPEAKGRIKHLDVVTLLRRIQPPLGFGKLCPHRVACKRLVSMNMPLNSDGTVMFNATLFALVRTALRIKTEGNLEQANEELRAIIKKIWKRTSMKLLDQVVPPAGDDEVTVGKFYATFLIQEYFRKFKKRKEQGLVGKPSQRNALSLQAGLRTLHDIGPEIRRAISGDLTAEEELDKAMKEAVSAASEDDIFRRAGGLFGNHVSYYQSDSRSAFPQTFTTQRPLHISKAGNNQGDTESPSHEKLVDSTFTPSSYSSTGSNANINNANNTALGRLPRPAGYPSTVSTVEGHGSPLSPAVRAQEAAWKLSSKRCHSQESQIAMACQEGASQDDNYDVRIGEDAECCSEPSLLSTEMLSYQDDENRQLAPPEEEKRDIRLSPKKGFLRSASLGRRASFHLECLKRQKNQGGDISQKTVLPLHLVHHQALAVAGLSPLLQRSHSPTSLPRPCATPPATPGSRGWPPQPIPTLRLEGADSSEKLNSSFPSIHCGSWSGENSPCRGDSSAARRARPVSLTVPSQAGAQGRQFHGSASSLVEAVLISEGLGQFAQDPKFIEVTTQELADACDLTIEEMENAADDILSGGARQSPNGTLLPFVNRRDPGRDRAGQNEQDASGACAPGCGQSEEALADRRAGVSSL
T1 sequence (P13806 27-960 partner limits assumed, other chains not shown): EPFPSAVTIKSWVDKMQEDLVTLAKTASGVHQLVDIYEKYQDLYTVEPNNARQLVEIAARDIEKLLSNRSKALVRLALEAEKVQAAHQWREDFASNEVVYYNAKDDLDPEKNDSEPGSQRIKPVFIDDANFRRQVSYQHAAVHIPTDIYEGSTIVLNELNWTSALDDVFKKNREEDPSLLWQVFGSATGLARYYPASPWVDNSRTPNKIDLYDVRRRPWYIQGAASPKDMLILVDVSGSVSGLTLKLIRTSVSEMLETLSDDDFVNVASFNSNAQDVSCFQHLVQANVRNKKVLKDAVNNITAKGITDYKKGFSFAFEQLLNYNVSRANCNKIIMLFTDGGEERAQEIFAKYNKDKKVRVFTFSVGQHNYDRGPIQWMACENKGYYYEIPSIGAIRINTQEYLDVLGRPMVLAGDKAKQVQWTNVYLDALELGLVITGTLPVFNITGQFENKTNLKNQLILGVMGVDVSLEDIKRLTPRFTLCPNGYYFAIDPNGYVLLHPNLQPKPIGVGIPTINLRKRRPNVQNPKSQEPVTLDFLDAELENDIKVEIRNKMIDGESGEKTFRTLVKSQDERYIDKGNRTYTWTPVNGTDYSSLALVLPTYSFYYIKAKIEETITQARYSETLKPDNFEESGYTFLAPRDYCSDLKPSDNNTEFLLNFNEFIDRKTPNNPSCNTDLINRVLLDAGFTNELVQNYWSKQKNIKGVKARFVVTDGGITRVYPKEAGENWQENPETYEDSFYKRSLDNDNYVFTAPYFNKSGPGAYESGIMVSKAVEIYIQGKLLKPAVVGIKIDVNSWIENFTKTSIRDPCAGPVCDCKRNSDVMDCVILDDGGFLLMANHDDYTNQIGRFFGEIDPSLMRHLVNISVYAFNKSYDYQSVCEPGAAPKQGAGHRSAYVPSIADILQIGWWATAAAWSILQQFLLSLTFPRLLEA
T1 sequence (P13806 961-1106 partner limits assumed, other chains not shown): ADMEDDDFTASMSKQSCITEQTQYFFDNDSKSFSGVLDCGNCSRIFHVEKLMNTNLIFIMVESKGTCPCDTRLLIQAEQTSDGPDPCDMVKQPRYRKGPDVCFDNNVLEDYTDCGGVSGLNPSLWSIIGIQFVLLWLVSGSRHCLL

The experiment concerns the target T1, calcium channel (3H-nitrendipine binding, heart membranes) (Oryctolagus cuniculus, UniProt P15381).
T1 construct: from tissue; host or cells: rabbit heart membrane preparation
Nature of the experiment: Assay for inhibition of nitrendipine binding (calcium channel antagonist activity). To be noted: 3H-nitrendipine 0.05-0.50 nM, rabbit heart membranes, 90 minutes at 4° C. As to the method: Female, New Zealand white rabbits (1-2 kg) are sacrificed by cervical dislocation, and the heart is immediately removed, cleaned and chopped into small pieces. The tissue is homogenized in 5×times volume of 0.05M Hepes buffer, pH 7.4. The homogenate is centrifuged at 4000 g for 10 minutes, and the supernatant is re-centrifuged at 42,000×g for 90 minutes. The resulting membrane pellet is re-suspended (0.7 ml/g weight) in 0.05M Hepes, pH 7.4 and stored at […] until used. Each tube of the binding assay contains ^3H-nitrendipine (0.05-0.50 nM), buffer, membranes (0.10 ml), and test compound in a total volume of 1.0 ml. After 90 minutes at 4° C., the bound nitrendipine is separated from the unbound by filtration on Whatman GF/C filters. After rinsing, the filters are dried and counted in a liquid scintillation counter.
Non-specific binding of ^3H-nitrendipine (that amount bound in the presence of excess unlabelled nitrendipine) is subtracted from the total bound to obtain specifically bound radiolabeled nitrendipine. The amount of specifically bound nitrendipine in the presence of a test compound is compared to that amount bound in the absence of a compound. A percent displacement (or inhibition) can then be calculated.
In general, IC50 refers to the concentration that gives 50% inhibition. As for `CCOC(=O)C1=C(c2ccccc2)NC2=C(C1c1cccc([N+](=O)[O-])c1)S(=O)(=O)CCCC2` (centres unmarked) [Compound 11, Thiepino[3,2-b]pyridine-3-carboxylic acid, 1,4,6,7,8,9-hexahydro-4-(3-nitrophenyl)-2-phenyl-, ethyl ester, 5,5-dioxide], the IC50 was determined as 6950 nM.
For `CC1=C(C(=O)OCCN(C)Cc2cccs2)C(c2c(F)cccc2Cl)C2=C(CCCCS2(=O)=O)N1` (centres unmarked) [Compound 9, Thiepino[3,2-b]pyridine-3-carboxylic acid, 4-(2-chloro-6-fluorophenyl)-1,4,6,7,8,9-hexahydro-2-methyl-, 2-[methyl(2-thienylmethyl)amino]ethyl ester, 5,5-dioxide], the IC50 is 29.5 nM.
In the case of `CN(CCOC(=O)C1=C(c2ccccc2)NC2=C(C1c1cccc([N+](=O)[O-])c1)S(=O)(=O)CCCC2)Cc1cccs1` (centres unmarked) [Compound 18, Thiepino[3,2-b]pyridine-3-carboxylic acid, 1,4,6,7,8,9-hexahydro-4-(3-nitrophenyl)-2-phenyl-, 2-[methyl(2-thienylmethyl)amino]ethyl ester, 5,5-dioxide], the IC50 amounted to 26000 nM.
To `CCOC(=O)C1=C(c2ccccc2)NC2=C(C1c1ccccc1Cl)S(=O)(=O)CCCC2` (centres unmarked) [Compound 8, Thiepino[3,2-b]pyridine-3-carboxylic acid, 4-(2-chlorophenyl)-1,4,6,7,8,9-hexahydro-2-phenyl-, ethyl ester, 5,5-dioxide] belongs 580 nM.
Then `CCOC(=O)C1=C(c2ccccc2)NC2=C(C1c1c(F)c(F)c(F)c(F)c1F)S(=O)(=O)CCCC2` (centres unmarked) [Compound 10, Thiepino[3,2-b]pyridine-3-carboxylic acid, 1,4,6,7,8,9-hexahydro-4-(2,3,4,5,6-pentafluorophenyl)-2-phenyl-, ethyl ester, 5,5-dioxide], with 684 nM; and `COC(=O)C1=C(c2ccccc2)NC2=C(C1c1cccc(Cl)c1)S(=O)(=O)CCCC2` (centres unmarked) [Compound 3, Thiepino[3,2-b]pyridine-3-carboxylic acid, 4-(3-chlorophenyl)-1,4,6,7,8,9-hexahydro-2-phenyl-, methyl ester, 5,5-dioxide], with 2000 nM; and `CC1=C(C(=O)OCCN(C)Cc2ccsc2)C(c2c(O)cccc2Cl)C2=C(CCCCS2(=O)=O)N1` (centres unmarked) [Compound 25, Thiepino[3,2-b]pyridine-3-carboxylic acid, 4-(2-chloro-6-hydroxyphenyl)-1,4,6,7,8,9-hexahydro-2-methyl-, 2-[methyl(3-thienylmethyl)amino]ethyl ester, 5,5-dioxide], with 815 nM.
To `CC1=C(C(=O)OCCN(C)Cc2cccs2)C(c2ccccc2Cl)C2=C(CCCCS2(=O)=O)N1` (centres unmarked) [Compound 14, Thiepino[3,2-b]pyridine-3-carboxylic acid, 4-(2-chlorophenyl)-1,4,6,7,8,9-hexahydro-2-methyl-, 2-[methyl(2-thienylmethyl)amino]ethyl ester, 5,5-dioxide] belongs 15 nM; to `CN(CCOC(=O)C1=C(c2ccccc2)NC2=C(C1c1ccccc1Cl)S(=O)(=O)CCCC2)Cc1cccs1` (centres unmarked) [Compound 17, Thiepino[3,2-b]pyridine-3-carboxylic acid, 4-(2-chlorophenyl)-1,4,6,7,8,9-hexahydro-2-phenyl-, 2-[methyl(2-thienylmethyl)amino]ethyl ester, 5,5-dioxide], 500 nM.
Turning to `CC1=C(C(=O)OCCN(C)Cc2cccs2)C(c2c(F)c(F)c(F)c(F)c2F)C2=C(CCCCS2(=O)=O)N1` (centres unmarked) [Compound 12, Thiepino[3,2-b]pyridine-3-carboxylic acid, 1,4,6,7,8,9-hexahydro-2-methyl-4-(2,3,4,5,6-pentafluorophenyl)-, 2-[methyl(2-thienylmethyl)amino]ethyl ester, 5,5-dioxide], the IC50 was found to be 5.9 nM.
Regarding `CN(CCOC(=O)C1=C(c2ccccc2)NC2=C(C1c1cccc(Cl)c1)S(=O)(=O)CCCC2)Cc1cccs1` (centres unmarked) [Compound 19, Thiepino[3,2-b]pyridine-3-carboxylic acid, 4-(3-chlorophenyl)-1,4,6,7,8,9-hexahydro-2-phenyl-, 2-[methyl(2-thienylmethyl)amino]ethyl ester, 5,5-dioxide], the IC50 came to 1290 nM.
Regarding `CN(CCOC(=O)C1=C(c2ccccc2)NC2=C(C1c1ccccc1Cl)S(=O)(=O)CCCC2)Cc1ccccc1` (centres unmarked) [Compound 6, Thiepino[3,2-b]pyridine-3-carboxylic acid, 4-(2-chlorophenyl)-1,4,6,7,8,9-hexahydro-2-phenyl-, 2-[methyl(phenylmethyl)amino]ethyl ester, 5,5-dioxide], the 50% inhibitory concentration (IC50) amounted to 312 nM.
As to `CCOC(=O)C1=C(c2cccnc2)NC2=C(C1c1ccccc1Cl)S(=O)(=O)CCCC2` (centres unmarked) [Compound 21, Thiepino[3,2-b]pyridine-3-carboxylic acid, 4-(2-chlorophenyl)-1,4,6,7,8,9-hexahydro-2-(3-pyridinyl)-, ethyl ester, 5,5-dioxide], the 50% inhibitory concentration (IC50) was 2000 nM.
Then `CCOC(=O)C1=C(c2ccccc2)NC2=C(C1c1ccc(Cl)cc1)S(=O)(=O)CCCC2` (centres unmarked) [Compound 1, Thiepino[3,2-b]pyridine-3-carboxylic acid, 4-(4-chlorophenyl)-1,4,6,7,8,9-hexahydro-2-phenyl-, ethyl ester, 5,5-dioxide], with 2000 nM; and `CCOC(=O)C1=C(c2cccs2)NC2=C(C1c1cccc(Cl)c1)S(=O)(=O)CCCC2` (centres unmarked) [Compound 16, Thiepino[3,2-b]pyridine-3-carboxylic acid, 4-(3-chlorophenyl)-1,4,6,7,8,9-hexahydro-2-(2-thienyl)-, ethyl ester, 5,5-dioxide], with 2300 nM; and `CCOC(=O)C1=C(c2ccccc2)NC2=C(C1c1c(O)cccc1Cl)S(=O)(=O)CCCC2` (centres unmarked) [Compound 7, Thiepino[3,2-b]pyridine-3-carboxylic acid, 4-(2-chloro-6-hydroxyphenyl)-1,4,6,7,8,9-hexahydro-2-phenyl-, ethyl ester, 5,5-dioxide], with 2000 nM.
With `CCOC(=O)C1=C(c2cccnc2)NC2=C(C1c1cccc(Cl)c1)S(=O)(=O)CCCC2` (centres unmarked) [Compound 22, Thiepino[3,2-b]pyridine-3-carboxylic acid, 4-(3-chlorophenyl)-1,4,6,7,8,9-hexahydro-2-(3-pyridinyl)-, ethyl ester, 5,5-dioxide], the IC50 is 2000 nM.
`CC1=C(C(=O)OCCN(C)Cc2cccs2)C(c2cccc([N+](=O)[O-])c2)C2=C(CCCCS2(=O)=O)N1` (centres unmarked) [Compound 13, Thiepino[3,2-b]pyridine-3-carboxylic acid, 1,4,6,7,8,9-hexahydro-2-methyl-4-(3-nitrophenyl)-, 2-[methyl(2-thienylmethyl)amino]ethyl ester, 5,5-dioxide]: the half-maximal inhibitory concentration (IC50) was determined as 7.1 nM.
In the case of `CCOC(=O)C1=C(c2cccs2)NC2=C(C1c1cccc([N+](=O)[O-])c1)S(=O)(=O)CCCC2` (centres unmarked) [Compound 20, Thiepino[3,2-b]pyridine-3-carboxylic acid, 1,4,6,7,8,9-hexahydro-4-(3-nitrophenyl)-2-(2-thienyl)-, ethyl ester, 5,5-dioxide], the IC50 worked out at 6540 nM.
For the molecule `CN(CCOC(=O)C1=C(c2ccccc2)NC2=C(C1c1c(O)cccc1Cl)S(=O)(=O)CCCC2)Cc1ccccc1` (centres unmarked) [Compound 5, Thiepino[3,2-b]pyridine-3-carboxylic acid, 4-(2-chloro-6-hydroxyphenyl)-1,4,6,7,8,9-hexahydro-2-phenyl-, 2-[methyl(phenylmethyl)amino]ethyl ester, 5,5-dioxide], the concentration for half-maximal inhibition (IC50) was 2000 nM.
